{
  "source": "patent US10822632B2",
  "about": "“Medium for detecting Staphylococcus aureus, sheet for detecting S. aureus comprising same, and method for detecting S. aureus using same” (DAI NIPPON PRINTING CO., LTD., priority 2016, dated 2020)",
  "assay_in_all_cases": "Experiment 4: growth on culture sheet containing colistin sodium methanesulfonate",
  "format_in_all_cases": "cell-based",
  "key": {"[1]": {"system": "Staphylococcus carnosus (Derived from roast beef)", "design": "key to Growth condition of the colony: the term “Inhibited” indicates the condition under which the growth was inhibited; a blank column indicates that a colony was formed under normal growth condition", "conditions": "for Growth condition of the colony: culture 24 hours", "method": "(§1) A given type of microbial strains to be tested were inoculated into a liquid medium (SCD broth medium), and culture was conducted at 35° C. for 24 hours to prepare a test microbial suspension. This test microbial suspension was diluted with phosphate buffered physiological saline to adjust the cell density to about 1 to 500 cfu/ml. The resulting test microbial sample (1 ml) was inoculated into the culture layer of the microorganism culture sheet prepared with the use of the medium liquid containing the components shown in Table 1 using a micropipette. The microorganism culture sheet into which the sample had been inoculated was allowed to stand in an incubator and culture was then conducted at 35° C. for 24 or 48 hours. After the completion of culture, the microorganism culture sheet was removed from the incubator. The color of the colony formed in the culture layer of the microorganism culture sheet and the color intensity were visually inspected. Each test microbial strain was subjected to the experiment described above. The names of the microbial strains to be tested used for the experiment and the conditions and the color of the colonies formed by the strains are shown in Table 2.\n(§2) A test microbial sample was prepared in the same manner as in Experiment 1. Also, the microorganism culture sheet was prepared in the same manner as in Experiment 1. […] With the use of a micropipette, 1 ml of the test microbial sample was inoculated into a culture layer of the microorganism culture sheet. In the same manner as with Experiment 1, the microorganism culture sheet into which the sample had been inoculated was subjected to incubation, culture was conducted for 24 hours, and the color of the colony formed in the culture layer of the microorganism culture sheet and the color intensity were visually inspected. Each test microbial strain was subjected to the experiment described above. The names of the microbial strains to be tested used for the experiment and the conditions of the colonies formed by the strains are shown in Table 5. […] The colistin sodium methanesulfonate concentration indicated in the upper column is mass concentration (mg/cm^3) relative to the total volume of the dried culture layer before the sample was inoculated thereinto, and the concentration indicated in the lower column is mass concentration (mg/ml) relative to the total volume of the sample solution that was inoculated into the culture layer at the time of use."}, "[2]": {"system": "Staphylococcus xylosus NBRC109770", "design": "key to Growth condition of the colony: the term “Inhibited” indicates the condition under which the growth was inhibited; a blank column indicates that a colony was formed under normal growth condition", "conditions": "for Growth condition of the colony: culture 24 hours", "method": "as §1, §2"}, "[3]": {"system": "Staphylococcus aureus NBRC12732", "design": "key to Growth condition of the colony: the term “Inhibited” indicates the condition under which the growth was inhibited; a blank column indicates that a colony was formed under normal growth condition", "conditions": "for Growth condition of the colony: culture 24 hours", "method": "as §1, §2"}, "[4]": {"system": "Staphylococcus saprophyticus subsp. saprophyticus NBRC102446", "design": "key to Growth condition of the colony: the term “Inhibited” indicates the condition under which the growth was inhibited; a blank column indicates that a colony was formed under normal growth condition", "conditions": "for Growth condition of the colony: culture 24 hours", "method": "as §1, §2"}, "[5]": {"system": "Staphylococcus sciuri ATCC29062", "design": "key to Growth condition of the colony: the term “Inhibited” indicates the condition under which the growth was inhibited; a blank column indicates that a colony was formed under normal growth condition", "conditions": "for Growth condition of the colony: culture 24 hours", "method": "as §1, §2"}, "[6]": {"system": "Staphylococcus intermedius ATCC29663", "design": "key: the term “Inhibited” indicates the condition under which the growth was inhibited; a blank column indicates that a colony was formed under normal growth condition", "conditions": "culture 24 hours", "method": "as §1, §2"}, "[7]": {"system": "Staphylococcus aureus ATCC25923", "conditions": "tested concentration of 0.3 to 4.1 mg/cm^3 (0.1 to 1.6 mg/ml in the sample solution)", "method": "as §1\n(§3) A test microbial sample was prepared in the same manner as in Experiment 1. Also, the microorganism culture sheet was prepared in the same manner as in Experiment 1. […]"}, "[8]": {"system": "Staphylococcus aureus NBRC100910", "conditions": "tested concentration of 0.3 to 4.1 mg/cm^3 (0.1 to 1.6 mg/ml in the sample solution)", "method": "as §1, §3"}, "[9]": {"conditions": "colistin 1.3 mg/cm^3 dried culture layer (0.5 mg/ml sample solution)"}, "[10]": {"conditions": "colistin 1.5 mg/cm^3 dried culture layer (0.6 mg/ml sample solution)"}, "[11]": {"conditions": "colistin 1.8 mg/cm^3 dried culture layer (0.7 mg/ml sample solution)"}, "[12]": {"conditions": "colistin 2.0 mg/cm^3 dried culture layer (0.8 mg/ml sample solution)"}, "[13]": {"conditions": "colistin 2.3 mg/cm^3 dried culture layer (0.9 mg/ml sample solution)"}, "[14]": {"conditions": "colistin 2.5 mg/cm^3 dried culture layer (1 mg/ml sample solution)"}, "[15]": {"conditions": "colistin 2.8 mg/cm^3 dried culture layer (1.1 mg/ml sample solution)"}, "[16]": {"conditions": "colistin 3.1 mg/cm^3 dried culture layer (1.2 mg/ml sample solution)"}, "[17]": {"conditions": "colistin 3.3 mg/cm^3 dried culture layer (1.3 mg/ml sample solution)"}, "[18]": {"conditions": "colistin 3.6 mg/cm^3 dried culture layer (1.4 mg/ml sample solution)"}, "[19]": {"conditions": "colistin 3.8 mg/cm^3 dried culture layer (1.5 mg/ml sample solution)"}, "[20]": {"conditions": "colistin 4.1 mg/cm^3 dried culture layer (1.6 mg/ml sample solution)"}, "[21]": {"conditions": "mass concentration in the sample solution"}, "[22]": {"conditions": "mass concentration relative to total volume of dried culture layer"}},
  "data": [
    {"substance": "colistin sodium methanesulfonate", "values": [
      {"measurement": "Growth condition of the colony", "setting": "[1]; [9]", "value": "Inhibited"},
      {"measurement": "Growth condition of the colony", "setting": "[1]; [10]", "value": "Inhibited"},
      {"measurement": "Growth condition of the colony", "setting": "[1]; [11]", "value": "Inhibited"},
      {"measurement": "Growth condition of the colony", "setting": "[1]; [12]", "value": "Inhibited"},
      {"measurement": "Growth condition of the colony", "setting": "[1]; [13]", "value": "Inhibited"},
      {"measurement": "Growth condition of the colony", "setting": "[1]; [14]", "value": "Inhibited"},
      {"measurement": "Growth condition of the colony", "setting": "[1]; [15]", "value": "Inhibited"},
      {"measurement": "Growth condition of the colony", "setting": "[1]; [16]", "value": "Inhibited"},
      {"measurement": "Growth condition of the colony", "setting": "[1]; [17]", "value": "Inhibited"},
      {"measurement": "Growth condition of the colony", "setting": "[1]; [18]", "value": "Inhibited"},
      {"measurement": "Growth condition of the colony", "setting": "[1]; [19]", "value": "Inhibited"},
      {"measurement": "Growth condition of the colony", "setting": "[1]; [20]", "value": "Inhibited"},
      {"measurement": "Concentration at which growth was inhibited", "setting": "[1]; [21]", "value": "≥ 0.5", "unit": "mg/mL"},
      {"measurement": "Concentration at which growth was inhibited", "setting": "[1]; [22]", "value": "≥ 1.3", "unit": "mg/mL"},
      {"measurement": "Growth condition of the colony", "setting": "[2]; [13]", "value": "Inhibited"},
      {"measurement": "Growth condition of the colony", "setting": "[2]; [14]", "value": "Inhibited"},
      {"measurement": "Growth condition of the colony", "setting": "[2]; [15]", "value": "Inhibited"},
      {"measurement": "Growth condition of the colony", "setting": "[2]; [16]", "value": "Inhibited"},
      {"measurement": "Growth condition of the colony", "setting": "[2]; [17]", "value": "Inhibited"},
      {"measurement": "Growth condition of the colony", "setting": "[2]; [18]", "value": "Inhibited"},
      {"measurement": "Growth condition of the colony", "setting": "[2]; [19]", "value": "Inhibited"},
      {"measurement": "Growth condition of the colony", "setting": "[2]; [20]", "value": "Inhibited"},
      {"measurement": "Concentration at which growth was inhibited", "setting": "[2]; [21]", "value": "≥ 0.9", "unit": "mg/mL"},
      {"measurement": "Concentration at which growth was inhibited", "setting": "[2]; [22]", "value": "≥ 2.3", "unit": "mg/mL"},
      {"measurement": "Growth condition of the colony", "setting": "[3]; [16]", "value": "Inhibited"},
      {"measurement": "Growth condition of the colony", "setting": "[3]; [17]", "value": "Inhibited"},
      {"measurement": "Growth condition of the colony", "setting": "[3]; [18]", "value": "Inhibited"},
      {"measurement": "Growth condition of the colony", "setting": "[3]; [19]", "value": "Inhibited"},
      {"measurement": "Growth condition of the colony", "setting": "[3]; [20]", "value": "Inhibited"},
      {"measurement": "Concentration at which growth was inhibited", "setting": "[3]; [21]", "value": 1.2, "unit": "mg/mL"},
      {"measurement": "Concentration at which growth was inhibited", "setting": "[3]; [22]", "value": 3.1, "unit": "mg/mL"},
      {"measurement": "Growth condition of the colony", "setting": "[4]; colistin 0.5 mg/cm^3 dried culture layer (0.2 mg/ml sample solution)", "value": "Inhibited"},
      {"measurement": "Growth condition of the colony", "setting": "[4]; colistin 0.8 mg/cm^3 dried culture layer (0.3 mg/ml sample solution)", "value": "Inhibited"},
      {"measurement": "Growth condition of the colony", "setting": "[4]; colistin 1.0 mg/cm^3 dried culture layer (0.4 mg/ml sample solution)", "value": "Inhibited"},
      {"measurement": "Growth condition of the colony", "setting": "[4]; [9]", "value": "Inhibited"},
      {"measurement": "Growth condition of the colony", "setting": "[4]; [10]", "value": "Inhibited"},
      {"measurement": "Growth condition of the colony", "setting": "[4]; [11]", "value": "Inhibited"},
      {"measurement": "Growth condition of the colony", "setting": "[4]; [12]", "value": "Inhibited"},
      {"measurement": "Growth condition of the colony", "setting": "[4]; [13]", "value": "Inhibited"},
      {"measurement": "Growth condition of the colony", "setting": "[4]; [14]", "value": "Inhibited"},
      {"measurement": "Growth condition of the colony", "setting": "[4]; [15]", "value": "Inhibited"},
      {"measurement": "Growth condition of the colony", "setting": "[4]; [16]", "value": "Inhibited"},
      {"measurement": "Growth condition of the colony", "setting": "[4]; [17]", "value": "Inhibited"},
      {"measurement": "Growth condition of the colony", "setting": "[4]; [18]", "value": "Inhibited"},
      {"measurement": "Growth condition of the colony", "setting": "[4]; [19]", "value": "Inhibited"},
      {"measurement": "Growth condition of the colony", "setting": "[4]; [20]", "value": "Inhibited"},
      {"measurement": "Concentration at which growth was inhibited", "setting": "[4]; [21]", "value": "≥ 0.2", "unit": "mg/mL"},
      {"measurement": "Concentration at which growth was inhibited", "setting": "[4]; [22]", "value": "≥ 0.5", "unit": "mg/mL"},
      {"measurement": "Growth condition of the colony", "setting": "[5]; [13]", "value": "Inhibited"},
      {"measurement": "Growth condition of the colony", "setting": "[5]; [14]", "value": "Inhibited"},
      {"measurement": "Growth condition of the colony", "setting": "[5]; [15]", "value": "Inhibited"},
      {"measurement": "Growth condition of the colony", "setting": "[5]; [16]", "value": "Inhibited"},
      {"measurement": "Growth condition of the colony", "setting": "[5]; [17]", "value": "Inhibited"},
      {"measurement": "Growth condition of the colony", "setting": "[5]; [18]", "value": "Inhibited"},
      {"measurement": "Growth condition of the colony", "setting": "[5]; [19]", "value": "Inhibited"},
      {"measurement": "Growth condition of the colony", "setting": "[5]; [20]", "value": "Inhibited"},
      {"measurement": "Concentration at which growth was inhibited", "setting": "[5]; [21]", "value": "≥ 0.9", "unit": "mg/mL"},
      {"measurement": "Concentration at which growth was inhibited", "setting": "[5]; [22]", "value": "≥ 2.3", "unit": "mg/mL"},
      {"measurement": "Growth condition of the colony", "setting": "[6]; [17]", "value": "Inhibited"},
      {"measurement": "Growth condition of the colony", "setting": "[6]; [18]", "value": "Inhibited"},
      {"measurement": "Growth condition of the colony", "setting": "[6]; [19]", "value": "Inhibited"},
      {"measurement": "Growth condition of the colony", "setting": "[6]; [20]", "value": "Inhibited"},
      {"measurement": "Growth inhibition", "setting": "[7]", "value": "did not inhibit the growth"},
      {"measurement": "Growth inhibition", "setting": "[8]", "value": "did not inhibit the growth"}
    ]}
  ]
}
